# Tested on: not listed separately
# Assay: Pharmacokinetic property (AUC) was determined after ip administration of 32 mg/kg in mice
# Assay type: ADME, organism-based
# Set-up: dose 32 mg/kg, route intraperitoneal
# Settings: mouse, in vivo
row,AUC,SMILES
1,2200 ng·h/mL,CCCCCC[C@@H]([C@@H](C)O)n1cnc2c(N)ncnc21 [EHNA]
2,29600 ng·h/mL,NC(=O)c1cn(C(CO)CCc2ccccc2)cn1 (stereo not given) [FR-221647]
3,9500 ng·h/mL,OC[C@H]1O[C@@H](n2cnc3c2NC=NC[C@H]3O)C[C@@H]1O [PENTOSTATIN]

# Tested on: not listed separately
# Assay: Pharmacokinetic property (AUC) was determined after po administration of 32 mg/kg in mice
# Assay type: ADME, organism-based
# Set-up: dose 32 mg/kg, route oral
# Settings: mouse, in vivo
row,AUC,SMILES
1,1000 ng·h/mL,CCCCCC[C@@H]([C@@H](C)O)n1cnc2c(N)ncnc21 [EHNA]
2,29900 ng·h/mL,NC(=O)c1cn(C(CO)CCc2ccccc2)cn1 (stereo not given) [FR-221647]

# Tested on: not listed separately
# Assay: Pharmacokinetic property (C(max)) was determined after po administration of 32 mg/kg in mice
# Assay type: ADME, organism-based
# Set-up: dose 32 mg/kg, route oral
# Settings: mouse, in vivo
row,Cmax,SMILES
1,1100 ng/mL,CCCCCC[C@@H]([C@@H](C)O)n1cnc2c(N)ncnc21 [EHNA]
2,15200 ng/mL,NC(=O)c1cn(C(CO)CCc2ccccc2)cn1 (stereo not given) [FR-221647]

# Tested on: not listed separately
# Assay: Pharmacokinetic property (C(max)) was determined after ip administration of 32 mg/kg in mice
# Assay type: ADME, organism-based
# Set-up: dose 32 mg/kg, route intraperitoneal
# Settings: mouse, in vivo
row,Cmax,SMILES
1,5900 ng/mL,CCCCCC[C@@H]([C@@H](C)O)n1cnc2c(N)ncnc21 [EHNA]
2,25200 ng/mL,NC(=O)c1cn(C(CO)CCc2ccccc2)cn1 (stereo not given) [FR-221647]
3,12200 ng/mL,OC[C@H]1O[C@@H](n2cnc3c2NC=NC[C@H]3O)C[C@@H]1O [PENTOSTATIN]

# Target: T1, Adenosine deaminase (Homo sapiens, UniProt P00813)
# T1 sequence (P00813 whole entry): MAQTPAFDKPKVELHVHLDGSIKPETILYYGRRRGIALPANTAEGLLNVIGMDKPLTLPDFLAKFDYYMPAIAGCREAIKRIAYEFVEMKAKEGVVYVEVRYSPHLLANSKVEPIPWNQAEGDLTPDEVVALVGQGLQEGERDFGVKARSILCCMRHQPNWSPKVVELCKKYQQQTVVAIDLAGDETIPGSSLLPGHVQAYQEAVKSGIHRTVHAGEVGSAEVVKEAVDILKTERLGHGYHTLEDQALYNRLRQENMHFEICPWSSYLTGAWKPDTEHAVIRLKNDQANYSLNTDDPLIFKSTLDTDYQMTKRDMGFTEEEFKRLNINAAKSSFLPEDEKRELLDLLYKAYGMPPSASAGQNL
# Settings: not given
row,SMILES,Ki
1,COC(=O)c1cn(C(CO)c2ccccc2)cn1 (stereo not given),> 100 µM
2,CCCCCC[C@@H]([C@@H](C)O)n1cnc2c(N)ncnc21 [EHNA],0.0037 µM

# Results, then the molecule that gave them:
row,Ki,SMILES
1,54 µM,NC(=O)c1cn(C(CO)c2ccccc2)cn1 (stereo not given)
2,> 100 µM,OCc1cn(C(CO)c2ccccc2)cn1 (stereo not given)
3,> 100 µM,O=C(O)c1cn(C(CO)c2ccccc2)cn1 (stereo not given)

# — ChEMBL document CHEMBL1136651, “Structure-based de novo design of non-nucleoside adenosine deaminase inhibitors” (Bioorg Med Chem Lett, 2003)
